What follows are compounds tested on Huh-7 cells containing the self-replicating, subgenomic HCV replicon (assay: HCV replicon assay (luciferase reporter)). Conditions: Hepatitis C virus, Huh-7, 72 h.
Assay type: cell-based
Protocol: Huh-7 cells containing the self-replicating, subgenomic HCV replicon with a stable luciferase (LUC) reporter were cultured in Dulbecco's modified Eagle's medium (DMEM) containing 2 mM L-glutamine and supplemented with 10% heat-inactivated fetal bovine serum (FBS), 1% penicillin-streptomyocin, 1% nonessential amino acids, and 0.5 mg/mL G418.
Determination of 50% inhibitory concentration (EC50) of compounds in HCV replicon cells were performed by the following procedure. On the first day, 5,000 HCV replicon cells were plated per well in a 96-well plate. On the following day, test compounds were solubilized in 100% DMSO to 100× the desired final testing concentration. Each compound was then serially diluted (1:3) up to 9 different concentrations. Compounds in 100% DMSO are reduced to 10% DMSO by diluting 1:10 in cell culture media. The compounds were diluted to 10% DMSO with cell culture media, which were used to dose the HCV replicon cells in 96-well format. The final DMSO concentration was 1%. The HCV replicon cells were incubated at 37° C. for 72 hours. At 72 hours, cells were processed when the cells are still subconfluent. Compounds that reduce the LUC signal are determined by Bright-Glo Luciferase Assay (Promega, Madison, Wis.). % Inhibition was determined for each compound concentration in relation to the control cells (untreated HCV replicon) to calculate the EC50.
Compounds of Formula (I) are active in the replicon assay. The antiviral activity of exemplary compounds is shown in Table 3, where ‘A’ indicates an EC50<1 μM, ‘B’ indicates an EC50≧1 μM and <10 μM, and ‘C’ indicates an EC50≧10 μM and <100 μM.

First: C#C[C@@]1(F)[C@H](O)[C@@H](COP(=S)(N[C@@H](C)C(=O)OC(C)C)Oc2ccccc2)O[C@H]1n1ccc(=O)[nH]c1=O (some centres unmarked) [Compound 16a]
Second: C#C[C@@]1(O)[C@H](O)[C@@H](CO[P@](=S)(N[C@@H](C)C(=O)OC(C)C)Oc2ccccc2)O[C@H]1n1ccc(=O)[nH]c1=O [Compound 1ab]
The EC50 of the first is higher: 1 to 10 µM for the first, under 1 µM for the second.

C#C[C@@]1(O)[C@H](O)[C@@H](COP(=S)(N[C@@H](C)C(=O)OC(C)C)Oc2ccc(F)c(Cl)c2)O[C@H]1n1ccc(=O)[nH]c1=O (some centres unmarked) [Compound 12a] and C#C[C@@]1(O)[C@H](O)[C@@H](COP(=S)(N[C@@H](C)C(=O)OC(C)C)Oc2ccc(Cl)cc2)O[C@H]1n1ccc(=O)[nH]c1=O (some centres unmarked) [Compound 11a] cannot be ordered by EC50: under 1 µM for the first, under 1 µM for the second.

C#C[C@@]1(O)[C@H](O)[C@@H](COP(=S)(N[C@@H](CC)C(=O)OC(C)C)Oc2ccccc2)O[C@H]1n1ccc(=O)[nH]c1=O (some centres unmarked) [Compound 21a] and C#C[C@@]1(O)[C@H](O)[C@@H](COP(=S)(N[C@@H](CCC)C(=O)OC(C)C)Oc2ccccc2)O[C@H]1n1ccc(=O)[nH]c1=O (some centres unmarked) [Compound 19a] cannot be ordered by EC50: under 1 µM for the first, under 1 µM for the second.

Compared with C#C[C@@]1(O)[C@H](O)[C@@H](COP(=S)(N[C@@H](CC(C)C)C(=O)OC(C)C)Oc2ccccc2)O[C@H]1n1ccc(=O)[nH]c1=O (some centres unmarked) [Compound 9a], C#C[C@@]1(O)[C@H](O)[C@@H](COP(=S)(N[C@H](C(=O)OC(C)C)C(C)C)Oc2ccccc2)O[C@H]1n1ccc(=O)[nH]c1=O (some centres unmarked) [Compound 8a] is higher in EC50: 1 to 10 µM for the first, 10 to 100 µM for the second. The first is the more potent here.

C#C[C@@]1(O)[C@H](O)[C@@H](COP(=S)(N[C@@H](C)C(=O)OC(C)C)Oc2ccc(F)cc2)O[C@H]1n1ccc(=O)[nH]c1=O (some centres unmarked) [Compound 10a] and C#C[C@@]1(O)[C@H](O)[C@@H](COP(=S)(N[C@@H](C)C(=O)OC(C)C)Oc2ccccc2)O[C@H]1n1ccc(=O)[nH]c1=O (some centres unmarked) [Compound 1a] cannot be ordered by EC50: under 1 µM for the first, under 1 µM for the second.

First: C#C[C@@]1(O)[C@H](O)[C@@H](CO[P@@](=S)(N[C@@H](C)C(=O)OC(C)C)Oc2ccccc2)O[C@H]1n1ccc(=O)[nH]c1=O [Compound 1aa]
Second: CC#C[C@@]1(O)[C@H](O)[C@@H](COP(=S)(N[C@@H](C)C(=O)OC(C)C)Oc2ccccc2)O[C@H]1n1ccc(=O)[nH]c1=O (some centres unmarked) [Compound 14a]
The EC50 of the first is lower: under 1 µM for the first, 1 to 10 µM for the second.

C#C[C@@]1(O)[C@H](O)[C@@H](COP(=S)(N[C@@H](CCSC)C(=O)OC(C)C)Oc2ccccc2)O[C@H]1n1ccc(=O)[nH]c1=O (some centres unmarked) [Compound 7a] and CC(C)OC(=O)[C@H](C)NP(=S)(OC[C@H]1O[C@@H](n2ccc(=O)[nH]c2=O)[C@@](O)(C#CI)[C@@H]1O)Oc1ccccc1 (some centres unmarked) [Compound 15a] cannot be ordered by EC50: under 1 µM for the first, under 1 µM for the second.

First: C#C[C@@]1(O)[C@H](O)[C@@H](COP(=S)(N[C@@H](C)C(=O)OC(C)C)Oc2ccccc2)O[C@H]1n1cnc2c(=O)[nH]c(N)nc21 (some centres unmarked) [Compound 6a]
Second: C#C[C@@]1(O)[C@H](O)[C@@H](COP(=S)(N[C@@H](C)C(=O)OC(C)C)Oc2ccccc2)O[C@H]1n1cnc2c(N)ncnc21 (some centres unmarked) [Compound 4a]
The EC50 of the first is higher: 1 to 10 µM for the first, under 1 µM for the second.

Compared with C#C[C@@]1(O)[C@H](O)[C@@H](COP(=S)(N[C@@H](C)C(=O)OC2CCCCC2)Oc2ccccc2)O[C@H]1n1cnc2c(=O)[nH]c(N)nc21 (some centres unmarked) [Compound 17a], C#C[C@@]1(O)[C@H](O)[C@@H](COP(=S)(N[C@@H](C)C(=O)OC(C)C)Oc2cccc3ccccc23)O[C@H]1n1ccc(=O)[nH]c1=O (some centres unmarked) [Compound 13a] is lower in EC50: 1 to 10 µM for the first, under 1 µM for the second.

First: C=C[C@@]1(O)[C@H](O)[C@@H](COP(=S)(N[C@@H](C)C(=O)OC(C)C)Oc2ccccc2)O[C@H]1n1ccc(=O)[nH]c1=O (some centres unmarked) [Compound 2a]
Second: CCC#C[C@@]1(O)[C@H](O)[C@@H](COP(=S)(N[C@@H](C)C(=O)OC(C)C)Oc2ccccc2)O[C@H]1n1ccc(=O)[nH]c1=O (some centres unmarked) [Compound 18a]
The EC50 of the first is lower: 1 to 10 µM for the first, 10 to 100 µM for the second. The first is the more potent here.

For CC(C)C#C[C@@]1(O)[C@H](O)[C@@H](COP(=S)(N[C@@H](C)C(=O)OC(C)C)Oc2ccccc2)O[C@H]1n1ccc(=O)[nH]c1=O (some centres unmarked) [Compound 20a], the EC50 was 10 to 100 µM.

The compounds below were run against NS5B570-Con1 (Delta-21) (Hepatitis C virus genotype 1b, UniProt Q9WMX2) (assay: NS5B inhibition assay). Conditions: IC50, incorporation of tritiated NMP into acid-insoluble RNA, 2 hours at 37° C.
Assay type: biochemical, HCV
Protocol: The enzyme activity of NS5B570-Con1 (Delta-21) was measured as an incorporation of tritiated NMP into acid-insoluble RNA products. The complementary IRES (cIRES) RNA sequence was used as a template, corresponding to 377 nucleotides from the 3′-end of HCV (−) strand RNA of the Con-1 strain, with a base content of 21% Ade, 23% Ura, 28% Cyt, and 28% Gua. The cIRES RNA was transcribed in vitro using a T7 transcription kit (Ambion, Inc.) and purified using the Qiagen RNeasy maxi kit. HCV polymerase reactions contained 50 nM NS5B570-Con1, 50 nM cIRES RNA, about 0.5 μCi tritiated NTP, 1 μm of competing cold NTP, 20 mM NaCl, 40 mm Tris-HCl (pH 8.0), 4 mm dithiothreitol, and 4 mm MgCl2. Standard reactions were incubated for 2 hours at 37° C., in the presence of increasing concentration of inhibitor. At the end of the reaction, RNA was precipitated with 10% TCA, and acid-insoluble RNA products were filtered on a size exclusion 96-well plate. After washing of the plate, scintillation liquid was added and radio labeled RNA products were detected according to standard procedures with a Trilux Topcount scintillation counter. The compound concentration at which the enzyme-catalyzed rate was reduced by 50% (IC50) was calculated by fitting the data to a non-linear regression (sigmoidal). The IC50 values were derived from the mean of several independent experiments. […]

C#CC1(O)C(O)C(COP(O)(=S)OP(=O)(O)OP(=O)(O)O)OC1n1ccc(=O)[nH]c1=O (centres unmarked) [Compound 24a] was tested, and the IC50 was under 10 µM.
For C#CC1(O)C(O)C(COP(O)(=S)OP(=O)(O)OP(=O)(O)O)OC1n1ccc(=O)[nH]c1=O (centres unmarked) [Compound 23a], the IC50 was under 1 µM.

The compounds below were run on HCV genotype 1b HCV replicon harbored in Huh7 cells (assay: Combination testing in HCV replicon (CalcuSyn CI, MacSynergy II synergy volume)). Conditions: not given.
Assay type: cell-based
Protocol: Two or more test compounds were tested in combination with each other using an HCV genotype 1b HCV replicon harbored in Huh7 cells with a stable luciferase (LUC) reporter. Cells were cultured under standard conditions in Dulbecco's modified Eagle's medium (DMEM; Mediatech Inc, Herndon, Va.) containing 10% heat-inactivated fetal bovine serum (FBS; Mediatech Inc, Herndon, Va.) 2 mM L-glutamine, and nonessential amino acids (JRH Biosciences). HCV replicon cells were plated in a 96-well plate at a density of 10^4 cells per well in DMEM with 10% FBS. On the following day, the culture medium was replaced with DMEM containing either no compound as a control, the test compounds serially diluted in the presence of 2% FBS and 0.5% DMSO, or a combination of compound 1a with one or more test compounds serially diluted in the presence of 2% FBS and 0.5% DMSO. The cells were incubated with no compound as a control, with the test compounds, or the combination of compounds for 72 hours. The direct effects of the combination of the test compounds were examined using a luciferase (LUC) based reporter as determined by the Bright-Glo Luciferase Assay (Promega, Madison, Wis.). Dose-response curves were determined for individual compounds and fixed ratio combinations of two or more test compounds.
The effects of test compound combinations were evaluated by two separate methods. In the Loewe additivity model, the experimental replicon data was analyzed by using CalcuSyn (Biosoft, Ferguson, Mo.), a computer program based on the method of Chou and Talalay. The program uses the experimental data to calculate a combination index (CI) value for each experimental combination tested. […]
The second method utilized for evaluating combination effects used a program called MacSynergy II. […] The volumes of synergy (positive volumes) or antagonism (negative volumes) represent the relative quantity of synergism or antagonism per change in the concentrations of the two drugs. […]

Compared with CC1CCC(C(=O)N(c2cc(C#CC(C)(C)C)sc2C(=O)O)C2CCC(O)CC2)CC1 (centres unmarked) [Compound 3003], CCC[C@H](NC(=O)[C@@H]1[C@H]2CCC[C@H]2CN1C(=O)[C@@H](NC(=O)[C@@H](NC(=O)c1cnccn1)C1CCCCC1)C(C)(C)C)C(=O)C(=O)NC1CC1 [Compound 1001, Telaprevir] is higher in “Synergy Volume” value: 32 μM^2% for the first, 104 μM^2% for the second.

Same assay, conditions: combination of compound 1a with the listed compound; 72 hours; MacSynergy II, Bliss independence; 25-100 synergistic, >100 strong synergistic

For CC(C)OC(=O)C(C)NP(=S)(OC[C@H]1O[C@@H](n2ccc(=O)[nH]c2=O)[C@](C)(O)[C@@H]1O)Oc1ccccc1 (some centres unmarked) [Compound 6002], the “Synergy Volume” value was 29 μM^2%.

From patent US8980865B2, “Substituted nucleotide analogs” (priority 2011, dated 2015)
